Measurements as given in US20140200265A1, “USAGE OF 1,3,5,7-TETRAHYDROXY-8-ISOPRENYLXANTHONE FOR TREATING INFLAMMATION” (Hong Kong Baptist University, priority 2013, published 2014).
Values after ≈ are worked out from the molar mass of the structure shown. Read-outs that look alike come from different tables or passages of the source.

Experiments:
[1] = system: Candida albicans secreted aspartic proteases (SAP); details: Planta Med. 2002; 68(1):49-54; cited from earlier work
[2] = system: NO production in LPS and IFN-γ stimulated RAW264.7 cells; assay: Assay for NO accumulation in stimulated macrophages (Griess reaction); format: cell-based; details: Mus musculus, 24 hours; for IC50: 10 U/ml IFN-γ and 100 ng/ml LPS
Method: RAW264.7 were maintained in RPMI 1640 medium supplemented with 10% FBS at 37° C. in a humidified 5% CO2 atmosphere. Cells were plated in a 96-well plate (5×10^3 cells/well) and allowed to attach overnight. The cells were then stimulated with 10 U/ml of IFN-γ and 100 ng/ml of LPS for 24 hours in the presence or absence of tested compound with final concentration of 50, 25, 12.5, 6.25, 3.125 μg/mL, and Indometacin as positive drug.
iNOS function was analyzed with Griess reaction and was applied for measurement of nitrite concentration in the culture supernatant. Briefly, 100 μl/well of sample was incubated with equal volume of Griess solution at room temperature for 10 min. The absorbance was evaluated at 540 nm using a calibration curve with a sodium nitrite standard. Percent inhibition was expressed as [1-(NO level of sample/NO level of vehicle treated-control)]×100 (Table 1).

[3] = system: miR-155 expression in stimulated RAW264.7 cells; assay: Assay for microRNA155 expression in stimulated macrophages (qRT-PCR); format: cell-based; details: RAW264.7 cells, 1, 2, 4 μg/mL, 24 hours, FIG. 2
Method: RAW264.7 cells were pretreated with tested sample (1,2,4 μg/mL,) for 1 hour and then stimulated for 24 hours. The cells were harvested. Total RNA was extracted and RNA concentrations were determined. Quantitative RT-PCR analyses on miRNAs were performed using TaqMan miR NA assays (Applied Biosystems, USA). 50 ng of RNA per reaction was subjected for RT reaction. RT reaction was carried out using the following conditions: 16° C. for 30 minutes, 42° C. for 30 minutes, and 85° C. for 5 minutes. Expression levels of the miRNAs were determined by qRT-PCR using TaqMan Expression Assays (Applied Biosystems, USA). RNU6 endogenous control was used for normalization, and expression levels were presented as ΔCt with standard deviation (FIG. 2).
As miR-155 plays an important role in the innate immune response or inflammation, the effect of 1,3,5,7-tetrahydroxy-8-isoprenylxanthone on the expression of miR-155 by qRT-PCR was evaluated. In FIG. 2, the cells were stimulated with 100 ng/ml of LPS and 10 U/ml of IFN-γ only or LPS plus different concentrations (1,2,4 μg/mL) of sample for 24 hours. Total RNA was isolated and the expression of miRNA-155 was determined by qRT-PCR. […] RNU6B was used here as an endogenous control. The data represent the mean±SD of triplicate experiments. **p<0.01 compared with the LPS plus IFN-γ.

Row | SMILES | IC50 against Candida albicans secreted aspartic proteases (SAP) [1] [µg/mL] | IC50 ([2]; read-out: The inhibitory effect on NO accumulation, IC50) [µM] | IC50 ([2]; read-out: The inhibitory effect on NO accumulation, IC50(μg/mL)) [µg/mL] | Effect on LPS plus IFN-γ-induced miR-155 expression [3] | inhibition at 1 µg/mL ([2]; 1 μg/mL, IFN-γ and LPS, read-out: The inhibitory effect on NO accumulation (percent inhibition)) [%]
1 | CC(C)=CCc1c(O)cc(O)c2oc3cc(O)cc(O)c3c(=O)c12 [1,3,5,7-tetrahydroxy-8-isoprenylxanthone] | 25 (≈ 76.1 µM) | 5.06 | 1.66 | reduced LPS plus IFN-γ-induced miR-155 expression in a dose-dependent manner | 
2 | COc1ccc2c(c1)c(CC(=O)O)c(C)n2C(=O)c1ccc(Cl)cc1 [Indometacin, reference compound] |  |  |  |  | 46.5
